Measurements from paper PMC6477744, “Mebendazole-induced M1 polarisation of THP-1 macrophages may involve DYRK1B inhibition” (BMC Research Notes, 2019).

Target: Dual specificity tyrosine-phosphorylation-regulated kinase 1B (DYRK1B) (Homo sapiens, UniProt Q9Y463)
Assay: DiscoverX competition binding assay (DNA-tagged kinase, 11-point Kd); also enzyme inhibition IC50 […] at […] ATP

Sequence of Dual specificity tyrosine-phosphorylation-regulated kinase 1B (DYRK1B) (Q9Y463 whole entry): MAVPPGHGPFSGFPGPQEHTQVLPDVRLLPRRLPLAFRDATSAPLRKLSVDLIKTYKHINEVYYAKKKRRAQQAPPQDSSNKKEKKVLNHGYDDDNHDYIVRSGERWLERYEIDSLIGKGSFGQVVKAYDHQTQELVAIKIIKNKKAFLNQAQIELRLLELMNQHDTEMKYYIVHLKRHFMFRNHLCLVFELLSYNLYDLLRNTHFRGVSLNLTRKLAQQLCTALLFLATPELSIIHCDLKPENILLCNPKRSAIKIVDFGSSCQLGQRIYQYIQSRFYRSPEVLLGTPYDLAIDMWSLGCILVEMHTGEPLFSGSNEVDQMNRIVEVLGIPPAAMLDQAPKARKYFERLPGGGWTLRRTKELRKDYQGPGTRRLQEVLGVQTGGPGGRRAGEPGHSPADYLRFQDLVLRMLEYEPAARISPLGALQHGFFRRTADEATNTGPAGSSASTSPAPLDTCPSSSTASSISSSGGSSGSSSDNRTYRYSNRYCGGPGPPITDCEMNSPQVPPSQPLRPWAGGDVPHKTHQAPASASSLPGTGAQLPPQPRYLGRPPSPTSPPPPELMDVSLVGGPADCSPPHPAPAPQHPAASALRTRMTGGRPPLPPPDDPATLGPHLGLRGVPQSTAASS

Kd: 7 nM
Structure (SMILES): COC(=O)Nc1nc2ccc(C(=O)c3ccccc3)cc2[nH]1 [MBZ, mebendazole]
